Consider 6 compounds from ChEMBL document CHEMBL1153683, “Triply-convergent synthesis of two sets of homochiral cyclopent[a]indene carbacyclin analogs” (Bioorg Med Chem Lett, 1991).

The species named for this assay is Homo sapiens. Briefly: Compound was evaluated for the inhibition of collagen-induced platelet aggregation. It is filed as functional.
The term IC50 denotes the concentration at which inhibition is half-maximal. Read a low IC50 as inhibition by little substance. With `O=C(O)CCc1ccc2c(c1)[C@H]1C[C@@H](O)[C@H](C#C[C@@H](O)C3CCCCC3)[C@H]1C2`, half-maximal inhibition (IC50) was put at 330 nM.

In the case of `O=C(O)Cc1ccc2c(c1)[C@H]1C[C@@H](O)[C@H](/C=C\[C@@H](O)C3CCCCC3)[C@H]1C2`, the IC50 was above 100000 nM.

The compound `O=C(O)Cc1ccc2c(c1)[C@H]1C[C@@H](O)[C@H](CC[C@@H](O)C3CCCCC3)[C@H]1C2` came in with an IC50 of 330 nM.

For `O=C(O)Cc1ccc2c(c1)[C@H]1C[C@@H](O)[C@H](C#C[C@@H](O)C3CCCCC3)[C@H]1C2`, inhibition was half-maximal at 180 nM (IC50).

`O=C(O)CCc1ccc2c(c1)[C@H]1C[C@@H](O)[C@H](/C=C\[C@@H](O)C3CCCCC3)[C@H]1C2` returned an IC50 above 100000 nM.

In turn, `O=C(O)CCc1ccc2c(c1)[C@H]1C[C@@H](O)[C@H](CC[C@@H](O)C3CCCCC3)[C@H]1C2` showed an IC50 of 2200 nM.
